Results taken from ChEMBL document CHEMBL4507268 (2021).

Experiments:
[1] = biological target: T1, Serine/threonine-protein kinase NLK (Homo sapiens) (UniProt Q9UBE8); conditions: Compound concentration 1000.0 nM
T1 sequence (whole entry): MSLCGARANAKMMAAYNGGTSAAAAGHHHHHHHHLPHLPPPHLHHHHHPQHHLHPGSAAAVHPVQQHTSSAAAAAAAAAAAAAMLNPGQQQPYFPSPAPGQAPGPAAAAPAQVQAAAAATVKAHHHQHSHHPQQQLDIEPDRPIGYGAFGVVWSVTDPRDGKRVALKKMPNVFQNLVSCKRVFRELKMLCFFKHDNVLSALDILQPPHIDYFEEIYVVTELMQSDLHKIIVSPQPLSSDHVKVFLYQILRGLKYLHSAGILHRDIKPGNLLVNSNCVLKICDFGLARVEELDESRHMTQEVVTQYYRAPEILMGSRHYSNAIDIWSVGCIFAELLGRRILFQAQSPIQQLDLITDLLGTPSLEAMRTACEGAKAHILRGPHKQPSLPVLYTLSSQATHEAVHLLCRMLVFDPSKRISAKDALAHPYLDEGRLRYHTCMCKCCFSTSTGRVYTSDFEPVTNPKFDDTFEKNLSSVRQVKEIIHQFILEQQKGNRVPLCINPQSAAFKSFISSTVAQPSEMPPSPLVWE

[2] = biological target: 3-phosphoinositide-dependent protein kinase 1 (Homo sapiens) (UniProt O15530); conditions: Compound concentration 1000.0 nM
[3] = biological target: T2, Ephrin type-A receptor 3 (Homo sapiens) (UniProt P29320); conditions: Compound concentration 1000.0 nM
T2 sequence (whole entry): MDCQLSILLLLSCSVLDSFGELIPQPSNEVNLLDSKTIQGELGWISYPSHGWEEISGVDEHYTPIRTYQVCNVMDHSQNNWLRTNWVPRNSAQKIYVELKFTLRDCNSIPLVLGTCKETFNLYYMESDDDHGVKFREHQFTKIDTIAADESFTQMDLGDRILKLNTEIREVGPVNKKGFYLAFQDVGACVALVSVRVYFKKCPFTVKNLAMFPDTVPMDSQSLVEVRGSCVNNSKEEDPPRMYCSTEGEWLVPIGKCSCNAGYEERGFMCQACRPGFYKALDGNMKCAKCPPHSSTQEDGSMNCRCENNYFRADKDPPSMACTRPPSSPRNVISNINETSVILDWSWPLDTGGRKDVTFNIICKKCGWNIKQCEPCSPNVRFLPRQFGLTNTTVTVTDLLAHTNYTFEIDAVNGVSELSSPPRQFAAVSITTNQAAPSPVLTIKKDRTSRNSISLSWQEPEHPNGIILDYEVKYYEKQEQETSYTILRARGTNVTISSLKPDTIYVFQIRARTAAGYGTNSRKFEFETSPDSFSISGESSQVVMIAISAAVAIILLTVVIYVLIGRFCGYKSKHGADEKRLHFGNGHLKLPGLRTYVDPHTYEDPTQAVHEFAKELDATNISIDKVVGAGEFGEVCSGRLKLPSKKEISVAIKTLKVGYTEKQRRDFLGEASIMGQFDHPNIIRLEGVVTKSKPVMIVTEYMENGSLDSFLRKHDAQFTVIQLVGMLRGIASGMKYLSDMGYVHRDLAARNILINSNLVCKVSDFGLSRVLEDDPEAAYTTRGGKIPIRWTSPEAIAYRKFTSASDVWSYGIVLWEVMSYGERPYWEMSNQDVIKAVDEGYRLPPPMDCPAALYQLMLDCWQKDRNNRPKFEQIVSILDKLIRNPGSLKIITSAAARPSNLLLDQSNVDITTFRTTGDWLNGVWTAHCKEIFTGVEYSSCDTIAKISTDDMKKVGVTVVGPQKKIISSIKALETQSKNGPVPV

[4] = biological target: Receptor tyrosine-protein kinase erbB-2 (Homo sapiens) (UniProt P04626); conditions: Compound concentration 1000.0 nM
[5] = biological target: Muscarinic acetylcholine receptor M1 (Homo sapiens) (UniProt P11229); conditions: Compound concentration 10.0 uM
[6] = biological target: Mitogen-activated protein kinase kinase kinase 4 (Homo sapiens) (UniProt Q9Y6R4); conditions: Compound concentration 1000.0 nM
[7] = biological target: Cyclin-dependent kinase 5 (Homo sapiens) (UniProt Q00535); conditions: Compound concentration 1000.0 nM
Sequence of Cyclin-dependent kinase 5 (Homo sapiens) (Q00535 whole entry, looked up): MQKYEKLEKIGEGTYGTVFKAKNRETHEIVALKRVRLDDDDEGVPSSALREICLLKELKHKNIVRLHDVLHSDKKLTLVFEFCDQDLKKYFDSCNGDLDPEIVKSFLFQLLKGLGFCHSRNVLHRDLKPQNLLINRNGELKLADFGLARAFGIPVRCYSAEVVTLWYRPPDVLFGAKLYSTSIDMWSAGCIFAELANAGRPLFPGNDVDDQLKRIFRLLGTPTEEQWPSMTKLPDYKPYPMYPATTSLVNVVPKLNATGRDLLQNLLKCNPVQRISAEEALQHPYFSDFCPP

[8] = biological target: Activin receptor type-2B (Homo sapiens) (UniProt Q13705); conditions: Compound concentration 1000.0 nM
[9] = biological target: Atypical kinase COQ8A, mitochondrial (Homo sapiens) (UniProt Q8NI60); conditions: Compound concentration 1000.0 nM
Sequence of Atypical kinase COQ8A, mitochondrial (Homo sapiens) (Q8NI60 163-647 limits assumed): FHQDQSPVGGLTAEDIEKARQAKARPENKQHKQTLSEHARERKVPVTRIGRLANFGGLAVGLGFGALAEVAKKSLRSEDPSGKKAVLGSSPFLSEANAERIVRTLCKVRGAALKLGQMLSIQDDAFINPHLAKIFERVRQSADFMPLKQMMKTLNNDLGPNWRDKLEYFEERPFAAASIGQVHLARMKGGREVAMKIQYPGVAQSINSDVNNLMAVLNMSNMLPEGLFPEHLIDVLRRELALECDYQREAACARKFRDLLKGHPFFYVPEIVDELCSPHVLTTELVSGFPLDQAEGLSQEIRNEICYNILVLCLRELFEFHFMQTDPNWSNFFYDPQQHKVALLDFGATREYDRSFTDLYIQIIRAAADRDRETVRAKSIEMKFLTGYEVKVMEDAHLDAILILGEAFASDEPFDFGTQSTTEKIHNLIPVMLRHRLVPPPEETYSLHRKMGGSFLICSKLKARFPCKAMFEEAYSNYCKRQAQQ

[10] = biological target: Mast/stem cell growth factor receptor Kit (Homo sapiens) (UniProt P10721); conditions: Compound concentration 1000.0 nM
Sequence of Mast/stem cell growth factor receptor Kit (Homo sapiens) (P10721 whole entry): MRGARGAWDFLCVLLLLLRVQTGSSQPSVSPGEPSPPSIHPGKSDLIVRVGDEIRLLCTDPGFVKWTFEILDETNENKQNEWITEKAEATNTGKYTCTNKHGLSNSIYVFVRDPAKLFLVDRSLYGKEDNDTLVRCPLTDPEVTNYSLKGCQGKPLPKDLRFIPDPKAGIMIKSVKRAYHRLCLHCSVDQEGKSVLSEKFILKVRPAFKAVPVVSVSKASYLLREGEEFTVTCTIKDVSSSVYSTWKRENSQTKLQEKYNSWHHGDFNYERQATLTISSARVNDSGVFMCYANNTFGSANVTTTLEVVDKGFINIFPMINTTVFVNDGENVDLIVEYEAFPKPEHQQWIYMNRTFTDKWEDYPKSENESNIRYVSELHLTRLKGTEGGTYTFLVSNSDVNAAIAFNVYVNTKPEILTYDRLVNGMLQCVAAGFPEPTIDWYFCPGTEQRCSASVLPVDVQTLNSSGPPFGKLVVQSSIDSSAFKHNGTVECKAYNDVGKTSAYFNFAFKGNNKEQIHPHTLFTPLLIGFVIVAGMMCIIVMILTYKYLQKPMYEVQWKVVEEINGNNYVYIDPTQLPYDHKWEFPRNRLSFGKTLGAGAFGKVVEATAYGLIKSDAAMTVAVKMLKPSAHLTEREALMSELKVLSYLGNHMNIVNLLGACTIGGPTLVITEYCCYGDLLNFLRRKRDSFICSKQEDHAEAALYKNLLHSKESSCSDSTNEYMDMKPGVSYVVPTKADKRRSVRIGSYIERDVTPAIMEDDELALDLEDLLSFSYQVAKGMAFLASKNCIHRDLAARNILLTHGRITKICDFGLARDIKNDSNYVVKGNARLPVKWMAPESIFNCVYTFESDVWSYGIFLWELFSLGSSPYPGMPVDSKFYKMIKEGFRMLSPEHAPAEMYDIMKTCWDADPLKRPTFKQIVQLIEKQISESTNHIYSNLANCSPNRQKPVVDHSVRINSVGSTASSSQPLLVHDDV

[11] = biological target: Serine/threonine-protein kinase SIK1 (Homo sapiens) (UniProt P57059); conditions: Compound concentration 1000.0 nM
[12] = biological target: Megakaryocyte-associated tyrosine-protein kinase (Homo sapiens) (UniProt P42679); conditions: Compound concentration 1000.0 nM
Sequence of Megakaryocyte-associated tyrosine-protein kinase (Homo sapiens) (P42679 whole entry): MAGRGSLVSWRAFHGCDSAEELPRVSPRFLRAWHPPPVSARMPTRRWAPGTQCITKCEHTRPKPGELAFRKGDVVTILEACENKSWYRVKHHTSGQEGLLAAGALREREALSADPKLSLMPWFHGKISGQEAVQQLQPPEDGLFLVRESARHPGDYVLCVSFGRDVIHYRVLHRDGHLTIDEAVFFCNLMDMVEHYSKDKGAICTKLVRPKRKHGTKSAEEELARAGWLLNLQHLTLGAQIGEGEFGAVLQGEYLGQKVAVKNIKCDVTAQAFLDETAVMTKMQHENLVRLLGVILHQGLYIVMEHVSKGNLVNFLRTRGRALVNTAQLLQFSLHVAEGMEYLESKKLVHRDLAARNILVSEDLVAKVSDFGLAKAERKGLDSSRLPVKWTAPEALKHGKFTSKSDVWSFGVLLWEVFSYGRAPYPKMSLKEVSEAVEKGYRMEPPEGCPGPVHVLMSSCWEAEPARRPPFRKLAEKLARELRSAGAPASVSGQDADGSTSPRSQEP

[13] = biological target: Cyclin-dependent kinase 7 (Homo sapiens) (UniProt P50613); conditions: Compound concentration 1000.0 nM
[14] = biological target: Serine/threonine-protein kinase LATS2 (Homo sapiens) (UniProt Q9NRM7); conditions: Compound concentration 1000.0 nM
Sequence of Serine/threonine-protein kinase LATS2 (Homo sapiens) (Q9NRM7 whole entry): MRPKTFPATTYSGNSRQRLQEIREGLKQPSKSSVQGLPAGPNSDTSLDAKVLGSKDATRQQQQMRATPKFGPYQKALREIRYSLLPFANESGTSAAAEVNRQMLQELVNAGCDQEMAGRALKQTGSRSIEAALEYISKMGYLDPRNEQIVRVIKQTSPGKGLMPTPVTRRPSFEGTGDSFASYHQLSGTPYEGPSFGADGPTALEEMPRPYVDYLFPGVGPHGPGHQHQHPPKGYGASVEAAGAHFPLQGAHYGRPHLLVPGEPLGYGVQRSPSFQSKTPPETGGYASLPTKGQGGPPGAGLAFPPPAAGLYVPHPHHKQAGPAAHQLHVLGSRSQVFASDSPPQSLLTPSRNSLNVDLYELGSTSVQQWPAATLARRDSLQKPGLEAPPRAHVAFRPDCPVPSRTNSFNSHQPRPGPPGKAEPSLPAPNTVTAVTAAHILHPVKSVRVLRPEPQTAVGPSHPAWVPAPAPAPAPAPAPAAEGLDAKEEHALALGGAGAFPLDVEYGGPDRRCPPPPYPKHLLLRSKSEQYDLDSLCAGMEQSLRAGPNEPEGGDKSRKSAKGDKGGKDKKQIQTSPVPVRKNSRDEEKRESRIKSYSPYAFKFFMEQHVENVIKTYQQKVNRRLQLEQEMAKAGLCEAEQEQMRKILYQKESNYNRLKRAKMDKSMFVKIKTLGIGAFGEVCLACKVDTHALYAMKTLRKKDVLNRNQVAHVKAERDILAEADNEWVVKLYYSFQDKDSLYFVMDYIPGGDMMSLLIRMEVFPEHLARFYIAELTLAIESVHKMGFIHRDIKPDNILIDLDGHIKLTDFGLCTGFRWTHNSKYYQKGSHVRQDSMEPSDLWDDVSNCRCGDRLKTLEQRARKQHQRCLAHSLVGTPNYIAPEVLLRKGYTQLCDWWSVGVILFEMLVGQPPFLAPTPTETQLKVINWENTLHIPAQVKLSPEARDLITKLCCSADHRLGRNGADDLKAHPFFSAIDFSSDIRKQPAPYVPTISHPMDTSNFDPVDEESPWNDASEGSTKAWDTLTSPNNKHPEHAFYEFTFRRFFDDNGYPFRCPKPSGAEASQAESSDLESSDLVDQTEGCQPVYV

[15] = biological target: Tyrosine-protein kinase Lck (Homo sapiens) (UniProt P06239); conditions: Compound concentration 1000.0 nM
Sequence of Tyrosine-protein kinase Lck (Homo sapiens) (P06239 2-509 limits assumed): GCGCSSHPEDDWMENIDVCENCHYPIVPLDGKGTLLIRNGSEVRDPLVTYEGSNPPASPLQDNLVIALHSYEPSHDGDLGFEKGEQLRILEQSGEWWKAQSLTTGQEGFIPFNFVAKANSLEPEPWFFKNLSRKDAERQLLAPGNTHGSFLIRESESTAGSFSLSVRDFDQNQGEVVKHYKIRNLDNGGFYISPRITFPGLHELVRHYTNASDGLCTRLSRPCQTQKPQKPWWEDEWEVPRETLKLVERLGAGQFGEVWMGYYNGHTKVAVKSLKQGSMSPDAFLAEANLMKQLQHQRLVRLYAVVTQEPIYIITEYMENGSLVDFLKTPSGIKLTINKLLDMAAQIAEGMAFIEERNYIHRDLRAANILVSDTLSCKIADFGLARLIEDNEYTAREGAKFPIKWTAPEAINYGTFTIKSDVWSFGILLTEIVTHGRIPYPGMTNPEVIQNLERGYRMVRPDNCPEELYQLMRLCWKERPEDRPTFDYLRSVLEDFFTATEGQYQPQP

[16] = biological target: Phosphatidylinositol 4-phosphate 3-kinase C2 domain-containing subunit beta (Homo sapiens) (UniProt O00750); conditions: Compound concentration 1000.0 nM
[17] = biological target: Serine/threonine-protein kinase SIK3 (Homo sapiens) (UniProt Q9Y2K2); conditions: Compound concentration 1000.0 nM
[18] = biological target: Focal adhesion kinase 1 (Homo sapiens) (UniProt Q05397); conditions: Compound concentration 1000.0 nM
Sequence of Focal adhesion kinase 1 (Homo sapiens) (Q05397 2-1052 limits assumed): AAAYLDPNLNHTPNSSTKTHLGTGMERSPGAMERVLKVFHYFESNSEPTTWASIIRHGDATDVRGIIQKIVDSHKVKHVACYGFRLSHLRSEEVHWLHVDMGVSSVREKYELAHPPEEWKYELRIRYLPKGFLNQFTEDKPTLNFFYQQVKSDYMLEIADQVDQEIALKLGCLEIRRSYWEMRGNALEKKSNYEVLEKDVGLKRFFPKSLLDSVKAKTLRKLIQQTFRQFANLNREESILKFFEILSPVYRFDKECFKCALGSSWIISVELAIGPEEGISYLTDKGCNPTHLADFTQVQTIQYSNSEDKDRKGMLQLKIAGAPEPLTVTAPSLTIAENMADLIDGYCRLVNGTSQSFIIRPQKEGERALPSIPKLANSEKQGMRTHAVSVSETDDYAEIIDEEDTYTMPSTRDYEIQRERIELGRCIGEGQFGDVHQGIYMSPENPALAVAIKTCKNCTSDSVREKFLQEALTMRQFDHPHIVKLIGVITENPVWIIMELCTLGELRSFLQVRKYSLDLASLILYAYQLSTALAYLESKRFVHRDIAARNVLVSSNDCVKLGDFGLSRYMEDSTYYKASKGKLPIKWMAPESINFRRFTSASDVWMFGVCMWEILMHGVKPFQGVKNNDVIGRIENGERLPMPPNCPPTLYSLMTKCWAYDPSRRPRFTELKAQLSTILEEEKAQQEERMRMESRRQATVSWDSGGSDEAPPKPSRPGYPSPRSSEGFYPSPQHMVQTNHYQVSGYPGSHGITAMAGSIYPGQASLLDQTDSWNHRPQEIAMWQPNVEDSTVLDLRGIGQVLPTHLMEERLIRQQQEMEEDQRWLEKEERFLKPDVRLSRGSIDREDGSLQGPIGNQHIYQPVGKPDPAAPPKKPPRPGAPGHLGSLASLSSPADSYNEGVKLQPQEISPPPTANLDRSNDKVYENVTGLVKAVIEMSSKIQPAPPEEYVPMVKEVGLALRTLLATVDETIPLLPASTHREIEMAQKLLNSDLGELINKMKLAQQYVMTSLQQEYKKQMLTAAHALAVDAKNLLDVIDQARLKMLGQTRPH

[19] = biological target: Cyclin-dependent kinase 4 (Homo sapiens) (UniProt P11802); conditions: Compound concentration 1000.0 nM
[20] = biological target: Mitogen-activated protein kinase 11 (Homo sapiens) (UniProt Q15759); conditions: Compound concentration 1000.0 nM

Cc1nc(C2CCN(C(=O)c3ccc(OC(F)(F)F)cc3N)CC2)c2ncc(N3CCN(C)CC3)cc2n1 [BAY-693]
inactive: residual activity [1] 100% | residual activity [2] 93% | residual activity [3] 92% | residual activity [4] 100% | inhibition [5] 2.76% | residual activity [6] 100% | residual activity [7] 88% | residual activity [8] 100% | residual activity [9] 100% | residual activity [10] 76% | residual activity [11] 100% | residual activity [12] 100% | residual activity [13] 100% | residual activity [14] 100% | residual activity [15] 100% | residual activity [16] 86% | residual activity [17] 91% | residual activity [18] 91% | residual activity [19] 100% | residual activity [20] 100%

CN1CCN(c2cnc3c(C4CCN(C(=O)c5ccc(OC(F)(F)F)cc5N)CC4)ncnc3c2)CC1 [BAY-885]
inactive: residual activity [1] 100% | residual activity [2] 85% | residual activity [3] 100% | residual activity [4] 100% | inhibition [5] 3.17% | residual activity [6] 95% | residual activity [7] 87% | residual activity [8] 100% | residual activity [9] 100% | residual activity [10] 85% | residual activity [11] 92% | residual activity [12] 100% | residual activity [13] 89% | residual activity [14] 100% | residual activity [15] 100% | residual activity [16] 98% | residual activity [17] 100% | residual activity [18] 100% | residual activity [19] 100% | residual activity [20] 98%
